In a melting point compilation (Tetko et al.; mined from patent text by program, amines drawn as free bases though some values may be those of a salt):

SMILES | melting point
N#Cc1cc2ccc(O)cc2s1 | 195 to 198 °C
Cc1cccc(OC(C)(C)C(=O)O)c1C | 71 to 73 °C
O=C(CCCOc1ccc(C=Cc2ccncc2)cc1)Nc1nnn[nH]1 | 274 to 276 °C
CN(C)C(=S)Oc1ccc(CC#N)cc1 | 120 to 124 °C
Oc1cc2[nH]c3cc(O)c(O)cc3c2cc1O | > 300 °C
CC1C(=O)Oc2cc(N3CCOCC3)c(Br)cc21 (stereo not given) | 99 to 100 °C
Cc1nccn1N=Cc1cc(C(C)(C)C)c(O)c(C(C)(C)C)c1 | 206 to 207 °C
COc1cc2cc(/C=C/C#N)sc2cc1OC | 154 to 158 °C
[O-][N+]1=C(c2ccccc2F)c2cc(Cl)ccc2NC(C(=NO)N2CCOCC2)C1 (stereo not given) | 184 to 186 °C
CN(C)S(=O)(=O)c1cc(C(=O)CBr)ccc1Cl | 98 °C
COC(=O)c1cc(C(C)=O)c(C)nc1C1=NC(C)(C(C)C)C(=O)N1 (stereo not given) | 118 to 120 °C
CCOC(=O)C1(NS(=O)(=O)c2ccc(F)cc2)CCCCC1 | 96 to 98 °C
CCNCC1CCN(c2c(F)cc3c(=O)c(C(=O)O)cn(C4(C)CC4)c3c2F)C1 (stereo not given) | 261 to 263 °C
CCOC(=O)C=C(C)C=CC=C(C)C=Cc1c(C)c(C)c(OC)c(C)c1Cl | 90 °C
CNC(=O)c1cc(Br)cc(C)c1N | 133 to 135 °C
COc1ccc(N2CCN(c3c(C)c(C)c4c(c3C)C(O)(c3cccs3)C(C)(C)O4)CC2)cc1 (stereo not given) | 154 to 155 °C
CC1(O)NC(=O)OC12CCNCC2 (stereo not given) | 192 to 194 °C
Cc1cccc(CON2C(C)(C)CC(O)CC2(C)C)c1 | 66 to 67 °C
CC1Cc2c(occ(C=O)c2=O)-c2ccccc21 (stereo not given) | 146 to 148 °C
C#CCN(c1ccc(C(=O)NC(CCc2nnn[nH]2)C(=O)O)nc1)C1CCc2cc3nc(C)[nH]c(=O)c3cc21 (mixture of isomers) | 189 to 191 °C
CC(=O)Nc1ccc([N+]([O-])=NC#N)cc1 | 240 to 242 °C
O=C(O)c1ccc(Cl)c(S)c1 | 209 to 211 °C
CC(=O)c1cc(C#N)c(=O)[nH]c1-c1ccncc1 | 255 to 257 °C

SMILES | melting point
CCN(CC)C(=O)c1cccc(C=O)c1 | 115 to 119 °C
O=C(Cn1cc(Cl)cn1)c1ccc(Br)s1 | 127 °C
O=C(C=Cc1ccc(F)cc1)C(=O)Nc1ccc(C(F)(F)F)cc1 | 200 to 201 °C
ClCc1csc(N2CCOCC2)n1 | 87 to 88 °C
COc1cc(Nc2c(C#N)cnc3c2C=C2N=CN=C2C3)cc(OC)c1OC | > 260 °C
Cc1nn(-c2nnc(S)n2N)c2c1CCCC2 | 201 to 202 °C
Cc1noc(NS(=O)(=O)c2ccsc2C(=O)Nc2cc3c(cc2C#N)OCO3)c1Cl | 167 to 168 °C
O=C(Nc1cc(C(F)(F)F)ccc1N1CCCC1)c1ccncc1 | 134 to 135 °C
N#CC(Cl)=C(Cl)S(=O)(=O)c1cc(Cl)ccc1Cl | 84 °C
Cc1nc2c(s1)N(C(=O)c1cnoc1C)CCCC2 | 117 to 118 °C
CCN(CC)c1ccc(C=O)c(OCCN2CCCCC2)c1 | 70 to 72 °C
COCc1cc(C(C)(C)C)cc(C(C)(C)C)c1O | 36 to 39 °C
CC(=O)NCCc1ccc(CC(=O)O)cc1 | 117 to 118 °C
CC(=O)OC1CSC(Oc2cncc(Cl)c2)C(OC(C)=O)C1OC(C)=O (stereo not given) | 160 °C
CC(C)CC(=O)Nc1cccc(-c2ccnc3c(Br)cnn23)c1 | 132 to 134 °C
O=S(=O)(F)CCCCCCCc1ccc(O)cc1 | 47 to 51 °C
C=CC(c1ccc(C(C)C)cc1)c1c(C)c(NC=O)c(C)c(C)c1O (stereo not given) | 170 to 171 °C
O=S(=O)(CCl)c1ccc(O)c(Br)c1 | 158 to 160 °C
c1ccc(N(c2ccccc2)c2ccc(N(c3ccccc3)c3ccccc3)cc2)cc1 | 200 to 202 °C
CC(=Cc1ccc(OCCCN(C)C)cc1)C(=O)O | > 190 °C
COc1cc(C(=O)O)ccc1S(=O)(=O)n1c(=O)n(C2CCCCC2)c2cc(OC3CCCC3)ccc21 | 245 °C
C=CCN(CCC)S(=O)(=O)NC(=O)c1cc(N)c(F)cc1Cl | 104 to 106 °C

The remaining lines, values ahead:

melting point | SMILES
129 to 130 °C | Cc1sc2c(Br)c3ccccc3c(-c3cc(Br)c(O)c([N+](=O)[O-])c3)c2c1C
174 to 176 °C | CC1(C)C[C@@H](n2c(=O)c(Cl)nc3ccccc32)c2cc(C#N)ccc2O1
242 to 245 °C | Cc1oc2c(C)c(C)c(NC(=O)c3ccc(F)cc3)c(C)c2c1-c1ccc(C(C)C)cc1
94 to 95 °C | CC(=O)Oc1cc(C(=O)Cc2ccccc2)cc([N+](=O)[O-])c1OC(C)=O
156 to 159 °C | CCN1CC(=O)N(c2ccc3ccccc3c2)C1=S
114 to 116 °C | C(#Cc1cc2ccccc2s1)c1cccs1
106 to 108 °C | CC(C)(O)c1ccc(CNC(=O)c2cccnc2Oc2ccc(F)cc2)cc1
99 to 101 °C | CCCCCC(CO)n1cnc(NC(=O)c2ccccc2C(=O)O)c1 (stereo not given)
> 250 °C | O=C(Nc1nccs1)c1nc(-c2ccc(C(F)(F)F)cc2)[nH]c1-c1ccc(F)cc1
111 to 112 °C | CCOC(=O)C(C)Oc1ccc2c(c1)N(C)C(=O)N(c1ccc(Cl)cc1)S2(=O)=O (stereo not given)
266 to 269 °C | Cc1cccc(C(=O)Nc2nc(=O)c3ccccc3n2C)c1
190 to 191 °C | COCc1c(C(O)c2ccccc2)ncc2[nH]c3ccc(OCc4ccccc4)cc3c12 (stereo not given)
99 to 100 °C | CCC(O)(CC)Cc1ccc(NC(=O)OCc2ccccc2)cc1
55 to 58 °C | O=C(c1ccccc1)N1CCC(Nc2ccccc2Oc2ccc(Cl)cc2Cl)CC1
191 to 193 °C | CN1C(=O)C(C(=O)Nc2ccc(Cl)c(Cl)c2)Sc2ccccc21 (stereo not given)
116 to 117 °C | CC(C)n1nc(COc2ccccc2CC(=O)O)cc1OCc1ccc2ccccc2n1
130 to 131 °C | O=c1ccn(-c2cccc(C(F)(F)F)c2)nc1-c1ccnn1-c1ccc(F)cc1
104 to 106 °C | C=CC[C@@H]1CCC(=O)C[C@H]1c1ccc(OCc2ccccc2)cc1OCc1ccccc1 (relative stereo)
245 °C | COc1cccc2c1C(=O)c1nc(-c3ccccc3)sc1C2=O
234 to 235 °C | Cc1cccc2cc3c(=O)n([C@@H](C)c4ccccc4)cc(C(=O)O)c3nc12
> 250 °C | Cc1oc2c(NC(=O)c3c(Cl)cccc3Cl)cc(C(N)=O)cc2c1C
118 to 119 °C | O=C1N[C@H](Cc2cccc(OC(F)(F)C(F)F)c2)[C@H](c2ccnc(F)c2)O1 (racemic)
131 to 135 °C | CCN(C(=O)OC)c1cccc(-c2ccc3nncn3n2)c1
162 °C | CC(C)(C(=O)NO)N(CCC(=O)O)S(=O)(=O)c1ccc(Oc2ccc(F)cc2)cc1
138 to 140 °C | COc1ccccc1OCC(O)CNc1nc(-c2ccccc2)nc2ccccc12 (stereo not given)
128 to 131 °C | COc1cc(C(O)c2ccccc2[N+](=O)[O-])c(Br)cn1 (stereo not given)
215 to 217 °C | O=Cc1c2ccccc2c(C=O)c2cc3ccccc3cc12
196 to 197 °C | CC(C)(C)OC(=O)CCc1ccc(-c2nc(=O)c3ccccc3s2)nc1C#N

melting point | SMILES
253 to 255 °C | CCc1nc(N)nc(N)c1-c1ccc(NCc2ccccc2)c([N+](=O)[O-])c1
182 °C | CCCCc1nc(=O)c2cc(-c3nnn(C(c4ccccc4)(c4ccccc4)c4ccccc4)n3)ccc2[nH]1
125 to 127 °C | CCOC(=O)c1cn(-c2ccc(OC)cc2)[nH]c1=O
133 °C | COc1ccc2ccc(N3C(=O)c4ccccc4C3OC(=O)CCC(C)C)nc2n1 (stereo not given)
105 to 110 °C | COc1cc(NC(=O)Nc2ccc3c(c2)CCN(C(=O)Nc2ccc(OCCO)cc2Cl)C3)cc(OC)c1
105 to 106 °C | CCCn1nc(-c2ccc(OC)cc2)cc(C(=O)OC)c1=O
218 to 220 °C | Brc1ccc(-c2cc(-c3ccc(Br)cc3)on2)cc1
199 to 205 °C | CS(=O)(=O)c1cccc(Nc2cc(-c3ccccc3OCc3ccccc3)ncn2)c1
229 to 230 °C | COc1cccc(CNC(=O)c2nc3scc(COCc4ccc(C(=O)O)cc4)c3c(=O)[nH]2)c1
128 to 138 °C | O=C(Nc1cccc(C(F)(F)F)c1)c1cccnc1NCCc1ccncc1
166 °C | Cc1cn(-c2cccc(C(=O)CC(=O)Nc3cc(C#Cc4ccc(F)cc4)ccc3NC(=O)OC(C)(C)C)c2)cn1
228 to 231 °C | Nc1cccc(N2C(=O)c3ccc(N)cc3C2=O)c1
165 to 167 °C | Cc1[nH]c(C(=O)NCc2ccc3c(c2)OCO3)c(C)c1-c1nc2ccc(C(=O)c3ccccc3)cc2[nH]1
115 to 117 °C | O=S(=O)(c1ccccc1)N1CCC(C(NCCc2ccccc2)c2ccc(F)cc2)CC1 (stereo not given)
203 to 204 °C | CN1CC(c2cc(OCc3ccccc3)ncn2)=C(O)C1=O
89 to 91 °C | O=C(c1ccccc1)C(Br)OCc1ccc(Cl)cc1Cl (stereo not given)
153 °C | COc1ccc(-c2oc3cc(C)c(C)cc3c2-c2ccc(OC)cc2)cc1
61 to 63 °C | CCCCCCCCCCCCOc1ccc(C(=O)c2ccc(Cl)cc2)c(O)c1
140 to 142 °C | FC(F)(F)c1ccc2c(c1)N(C1=CCCN1C1=NCCC1)c1ccccc1O2
67.3 to 68.7 °C | COc1cccc(-c2cc(C(=O)NCCCCCCCCc3ccccc3)cc(-c3cccc(OC)c3OCC(=O)O)c2)c1
112 to 113 °C | O=C(CBr)c1cc(OCc2ccccc2)c(OCc2ccccc2)c(OCc2ccccc2)c1
77 to 78 °C | CCCc1nn(-c2ccc(C(F)(F)F)cn2)cc1COc1cccc(CC(=O)O)c1
124 to 127 °C | CC(C)C(C(=O)O)c1ccc([N+](=O)[O-])cc1 (stereo not given)
147 to 148 °C | COc1ccc(/C=C(\C#N)c2ccc3ccccc3c2)cc1OC1CCCC1
272 to 275 °C | O=c1cc(-c2ccc3nccnc3c2)oc2ncccc12
193 to 196 °C | CC(C)(C)NC(=O)NC(Cc1ccccc1)C(O)C(O)C(Cc1ccccc1)NC(=O)NC(C)(C)C (stereo not given)
196 °C | CCc1ccc(NC(=O)Nc2ccc(Oc3ccnc(OC)c3)cc2)cc1
